The subject of data set [1] is docetaxel resistant cells (PC3 and DU145). The note with it: cited from earlier work.
Data set [2] has as its system IGR-CaP1 docetaxel-resistant cell lines (IGR-CaP1-R). In words: Genome-wide microarray gene expression analysis of docetaxel-resistant vs parental IGR-CaP1 cells, first analysis (Tables 1-4, FC exp1). Format: cell-based, human. The procedure: (§1) The human androgen-independent IGR-CaP1 cell line recently obtained for a localized prostate cancer was maintained in RPMI medium complemented with 10% FBS and antibiotics.
Quality of RNA preparation, based on the RNA Integrity Number (RIN), was assessed using the Agilent RNA 6000 Nano Kit as developed on the Agilent 2100 Bioanalyzer device (Agilent Technologies, Palo Alto, Calif.). […] RNA samples were frozen in nuclease-free water (Qiagen).
Parental and resistant-cell line total RNAs were directly compared by using Agilent oligonucleotide dual-color technology, running dye-swap and duplicate experiments. Total RNA from the parental IGR-CaP1 cell line without treatment was used as the RNA reference. […] Probe synthesis and labeling were performed by Agilent's Low Fluorescent Low input Linear Amplification Kit. Hybridization was performed on the Agilent 4×44K Human 1A (G4112F) long (60-bp) oligonucleotide microarrays (Agilent Technologies) by using reagents and protocols provided by the manufacturer. Feature extraction software provided by Agilent (Version A.9.5.3.1) was used to quantify the intensity of fluorescent images and to normalize results using the linear and lowess subtraction method.
The methodology described below is based on a dose-dependent gene expression changes:
Under the hypothesis of a clone enrichment, and/or a biological effect due to drug increasing, monotonically increasing or decreasing expression profiles were identified by using a 5-parameters logistic regression model:
where yg is the log.ratio of treatment vs. reference for the gene g, x is the drug-dose in Log10[nM], and B, T, xc, p are, respectively, the estimated minimal value, the estimated maximal value, the slope at the inflexion point, and the asymmetric parameter. For each probe, parameters were first initialized with the observed values, and then optimized by an iterative method of gradient (the Newton-Raphson method). The aim of this iterative algorithm is to minimize the weighted quadratic sum of residuals:
The performance of the fitting was measured, for each probe, by a robust linear regression (RLR) of the fitted values against the observed values. Probes potentially associated with the drug increasing were selected on the 2 following criterion:
RLRp-value ≦1e-5, and |fold change|≧2 between the first and the last dose (resp: 5 and 200 nM), considering the fold change estimated by the 5-parameters logistic regression model. Calculations and graphic visualizations were performed in R (free software version 2.6.2), by using the package “MASS” (version 7.2-40), and supplemental scripts, in R language, written in the lab (F. Commo).
Untreated IGR-CaP1 parental cell lines were used as baseline. Such genes were those for which expression changes (at least one probe in case of multiple probe sets per gene) appeared as drug-dependent, in the sense of criterion described above.

The subject of another data set is IGR-CaP1 cells. Description: Generation of acquired resistance to docetaxel in vitro (dose-escalation selection of clones). In kind it is cell-based, human. Conditions: selection with docetaxel, before proliferation was regained.
From the text: The prostate cancer cell line IGR-CaP1 is described in CNCM deposit number I-4126 on Feb. 10, 2009.
as §1
Prostate cancer IGR-CaP1 cells were used to generate successive docetaxel-resistant cell lines. […] Cell cycle analysis was done to show acquired resistance to drug.

For the next data set, the system named is prostate cancer. The note with it: cited from earlier work.
The mark [3] stands for this setting: IGR-CaP1-R 100 nM docetaxel clone vs parental IGR-CaP1.

The text below walks through data of patent US20130130928A1, “METHODS FOR PREDICTING OR MONITORING WHETHER A PATIENT AFFECTED BY A CANCER IS RESPONSIVE TO A TREATMENT WITH A MOLECULE OF THE TAXOID FAMILY” (INSTITUT GUSTAVE ROUSSY, priority 2010, published 2013).

Consider `Oc1ccc(C=Cc2cc(O)cc(O)c2)cc1` [resveratrol], for which, in data set [1], the apoptosis result is “increase of apoptosis” and the clusterin expression entry is on record as “decreased expression of clusterin”.
With `CC(=O)O[C@@]12CO[C@@H]1C[C@H](O)[C@@]1(C)C(=O)[C@H](O)C3=C(C)[C@@H](OC(=O)[C@H](O)[C@@H](NC(=O)OC(C)(C)C)c4ccccc4)C[C@@](O)([C@@H](OC(=O)c4ccccc4)[C@H]21)C3(C)C` [docetaxel], in data set [2] (IGR-CaP1-R 5 nM docetaxel clone vs parental IGR-CaP1), the “ZFP62 gene expression 5 nM” value was determined as 0.190. Also, in data set [2] (IGR-CaP1-R 12 nM docetaxel clone vs parental IGR-CaP1), the “ZFP62 gene expression 12 nM” value was 0.246. Also, the “ZFP62 gene expression 25 nM” value in data set [2] (IGR-CaP1-R 25 nM docetaxel clone vs parental IGR-CaP1) was 0.278. Also, the “ZFP62 gene expression 50 nM” value in data set [2] (IGR-CaP1-R 50 nM docetaxel clone vs parental IGR-CaP1) is 0.402. Besides, in data set [2] (setting [3]), the “LRRC44 gene expression 100 nM” value was found to be 0.139 and the “ZFP62 gene expression 100 nM” value was 0.482. Moreover, the “ZFP62 gene expression 200 nM” value in data set [2] (IGR-CaP1-R 200 nM docetaxel clone vs parental IGR-CaP1) was 0.503. In the data set on IGR-CaP1 cells, the “cell death on addition of docetaxel” value was “a large majority of cells initially underwent cell death”. The “patients developing resistance to the chemotherapy” value in the data set on prostate cancer (from the beginning or in a secondary way) was “almost half”. Further, the toxicity entry in the data set on prostate cancer (patients) is reported as “great toxicity”. Also, in the data set with prostate cancer (prostate cancer patients, TAX 327 and SWOG 99-16), the survival result is reported as “increase in survival”.
